# Laboratory results taken from ChEMBL document CHEMBL2073971, “Organic anion-transporting polypeptides mediate transport of opioid peptides across blood-brain barrier” (J Pharmacol Exp Ther, 2000).
# T1: Solute carrier organic anion transporter family member 1A2 (OATP1A2) (Homo sapiens, UniProt P46721)
# T1 sequence (P46721 whole entry): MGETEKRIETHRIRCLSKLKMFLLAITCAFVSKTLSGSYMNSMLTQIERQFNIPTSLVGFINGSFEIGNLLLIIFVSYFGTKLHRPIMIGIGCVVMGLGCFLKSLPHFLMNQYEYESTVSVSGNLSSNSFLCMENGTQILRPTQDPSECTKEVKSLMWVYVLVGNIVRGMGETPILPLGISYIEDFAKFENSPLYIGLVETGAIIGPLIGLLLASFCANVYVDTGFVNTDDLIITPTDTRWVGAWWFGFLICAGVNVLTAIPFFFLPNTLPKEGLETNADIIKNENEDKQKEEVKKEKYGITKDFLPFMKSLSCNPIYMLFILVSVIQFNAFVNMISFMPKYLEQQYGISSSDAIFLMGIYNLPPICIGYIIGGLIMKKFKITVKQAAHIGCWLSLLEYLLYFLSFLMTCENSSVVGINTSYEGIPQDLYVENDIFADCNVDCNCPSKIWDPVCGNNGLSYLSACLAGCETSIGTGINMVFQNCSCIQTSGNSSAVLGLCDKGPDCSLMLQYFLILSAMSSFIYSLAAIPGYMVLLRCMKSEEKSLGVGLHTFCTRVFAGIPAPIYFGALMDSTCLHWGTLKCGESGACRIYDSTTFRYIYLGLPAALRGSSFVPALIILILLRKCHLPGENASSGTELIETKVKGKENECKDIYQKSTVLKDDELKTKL
# T2: Solute carrier organic anion transporter family member 1A2 (Homo sapiens, UniProt P46721)
# T2 sequence (P46721 whole entry): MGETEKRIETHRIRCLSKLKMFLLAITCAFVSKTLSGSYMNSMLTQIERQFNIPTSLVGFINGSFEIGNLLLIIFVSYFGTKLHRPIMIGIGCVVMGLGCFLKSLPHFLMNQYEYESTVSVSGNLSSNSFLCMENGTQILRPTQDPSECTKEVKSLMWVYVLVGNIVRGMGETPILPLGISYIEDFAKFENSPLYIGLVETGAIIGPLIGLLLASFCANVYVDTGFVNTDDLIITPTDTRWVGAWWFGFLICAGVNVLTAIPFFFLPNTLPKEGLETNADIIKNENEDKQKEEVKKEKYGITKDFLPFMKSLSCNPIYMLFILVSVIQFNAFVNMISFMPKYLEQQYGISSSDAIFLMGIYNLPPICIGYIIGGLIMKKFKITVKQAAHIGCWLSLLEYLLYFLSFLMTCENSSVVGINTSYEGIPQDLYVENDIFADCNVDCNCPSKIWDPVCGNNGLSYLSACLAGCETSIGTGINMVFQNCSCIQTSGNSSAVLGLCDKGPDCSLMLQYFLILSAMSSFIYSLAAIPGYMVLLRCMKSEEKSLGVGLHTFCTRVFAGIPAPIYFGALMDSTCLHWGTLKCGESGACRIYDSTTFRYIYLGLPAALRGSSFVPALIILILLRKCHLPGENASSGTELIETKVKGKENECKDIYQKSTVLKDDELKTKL
# T3: Solute carrier organic anion transporter family member 1A4 (Rattus norvegicus, UniProt O35913)
# T3 sequence (O35913 whole entry): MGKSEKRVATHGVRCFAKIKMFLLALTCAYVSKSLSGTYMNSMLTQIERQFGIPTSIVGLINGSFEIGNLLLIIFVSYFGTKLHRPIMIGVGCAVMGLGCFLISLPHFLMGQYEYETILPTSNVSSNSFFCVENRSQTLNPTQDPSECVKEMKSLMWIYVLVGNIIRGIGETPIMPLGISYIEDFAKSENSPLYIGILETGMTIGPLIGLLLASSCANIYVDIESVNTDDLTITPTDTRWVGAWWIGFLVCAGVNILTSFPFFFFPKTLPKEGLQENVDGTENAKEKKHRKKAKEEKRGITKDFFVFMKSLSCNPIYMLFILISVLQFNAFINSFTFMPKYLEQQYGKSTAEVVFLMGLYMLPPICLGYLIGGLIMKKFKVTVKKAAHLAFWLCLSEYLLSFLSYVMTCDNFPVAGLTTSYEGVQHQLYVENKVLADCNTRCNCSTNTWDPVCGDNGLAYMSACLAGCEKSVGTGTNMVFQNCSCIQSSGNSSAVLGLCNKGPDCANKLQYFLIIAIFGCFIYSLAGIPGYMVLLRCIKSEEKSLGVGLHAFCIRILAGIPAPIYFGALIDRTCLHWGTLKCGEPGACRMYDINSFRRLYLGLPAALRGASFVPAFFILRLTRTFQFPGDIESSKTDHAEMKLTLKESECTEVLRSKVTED
# Assays:
# [1] = molecular target: T1, Solute carrier organic anion transporter family member 1A2 (OATP1A2); assay: (§1) TP_TRANSPORTER: uptake in Xenopus laevis oocytes; assay type: functional, cell-based, Oocyte; conditions: Xenopus laevis oocytes expressing the transporter
# [2] = molecular target: T2, Solute carrier organic anion transporter family member 1A2; assay: TP_TRANSPORTER: inhibition of Deltorphin II uptake (Deltorphin II: 50 uM, DPDPE: 500 uM) in Xenopus laevis oocytes; assay type: functional, cell-based; conditions: oocyte
# [3] = molecular target: T2, Solute carrier organic anion transporter family member 1A2; assay: TP_TRANSPORTER: inhibition of Deltorphin II uptake (Deltorphin II: 50 uM, Naltrindole: 1500 uM) in Xenopus laevis oocytes; assay type: functional, cell-based; conditions: oocyte
# [4] = molecular target: T3, Solute carrier organic anion transporter family member 1A4; assay: as §1; assay type: functional, cell-based; conditions: oocyte
# [5] = molecular target: T2, Solute carrier organic anion transporter family member 1A2; assay: TP_TRANSPORTER: inhibition of Deltorphin II uptake (Deltorphin II: 50 uM, Naloxone: 1500 uM) in Xenopus laevis oocytes; assay type: functional, cell-based; conditions: oocyte
# [6] = molecular target: T2, Solute carrier organic anion transporter family member 1A2; assay: TP_TRANSPORTER: inhibition of Deltorphin II uptake (Deltorphin II: 50 uM, E1S: 150 uM) in Xenopus laevis oocytes; assay type: functional, cell-based; conditions: oocyte
# [7] = molecular target: T2, Solute carrier organic anion transporter family member 1A2; assay: TP_TRANSPORTER: inhibition of Deltorphin II uptake (Deltorphin II: 50 uM, DAMGO: 200 uM) in Xenopus laevis oocytes; assay type: functional, cell-based; conditions: oocyte
# [8] = substrate: CC(C)[C@H](NC(=O)[C@H](CCC(=O)O)NC(=O)[C@H](Cc1ccccc1)NC(=O)[C@@H](C)NC(=O)[C@@H](N)Cc1ccc(O)cc1)C(=O)N[C@H](C(=O)NCC(N)=O)C(C)C; assay: as §1; assay type: functional, cell-based, Oocyte
# [9] = substrate: CC1(C)SSC(C)(C)[C@@H](NC(=O)[C@@H](N)Cc2ccc(O)cc2)C(=O)NCC(=O)N[C@@H](Cc2ccccc2)C(=O)N[C@H]1C(=O)O; assay: as §1; assay type: functional, cell-based, Oocyte
molecule,measurement,setting,value
CC1(C)SSC(C)(C)[C@@H](NC(=O)[C@@H](N)Cc2ccc(O)cc2)C(=O)NCC(=O)N[C@@H](Cc2ccccc2)C(=O)N[C@H]1C(=O)O,Km,[1],202 µM
same,Activity,[2],inhibitor [(at a rough estimate) 50 % of control]
Oc1ccc2c3c1O[C@H]1c4[nH]c5ccccc5c4C[C@@]4(O)[C@@H](C2)N(CC2CC2)CC[C@]314 [NALTRINDOLE],Activity,[3],inhibitor [(at a rough estimate) 10 % of control]
CC(C)[C@H](NC(=O)[C@H](CCC(=O)O)NC(=O)[C@H](Cc1ccccc1)NC(=O)[C@@H](C)NC(=O)[C@@H](N)Cc1ccc(O)cc1)C(=O)N[C@H](C(=O)NCC(N)=O)C(C)C [DELTORPHIN II],Km,[1],330 µM
same,Activity,[4],is not a substrate [-]
C=CCN1CC[C@]23c4c5ccc(O)c4O[C@H]2C(=O)CC[C@@]3(O)[C@H]1C5 [NALOXONE],Activity,[5],inhibitor [(at a rough estimate) 20 % of control]
C[C@]12CC[C@@H]3c4ccc(OS(=O)(=O)O)cc4CC[C@H]3[C@@H]1CCC2=O [ESTRONE SULFURIC ACID],Activity,[6],inhibitor [(at a rough estimate) 10 % of control]
C[C@@H](NC(=O)[C@@H](N)Cc1ccc(O)cc1)C(=O)NCC(=O)N(C)[C@@H](Cc1ccccc1)C(=O)NCCO [DAMGO],Activity,[7],inhibitor [(at a rough estimate) 50 % of control]
Solute carrier organic anion transporter family member 1A1 (Rattus norvegicus) (protein) MEETEKKIATQEGRLFSKMKVFLLSLTCACLTKSLSGVYMNSMLTQIERQFDISTSVAGLINGSFEIGNLFFIVFVSYFGTKLHRPVVIGIGCVIMGLGCLLMSLPHFFMGRYEYETTISPTGNLSSNSFLCMENRTQTLKPTQDPAECVKEMKSLMWICVMVGNIIRGIGETPIVPLGISYIEDFAKSENSPLYIGILEMGKVAGPIFGLLLGSYCAQIYVDIGSVNTDDLTITPSDTRWVGAWWIGFLVCAGVNILTSIPFFFLPKALPKKGQQENVAVTKDGKVEKYGGQAREENLGITKDFLTFMKRLFCNPIYMLFILTSVLQVNGFINKFTFLPKYLEQQYGKSTAEAIFLIGVYSLPPICLGYLIGGFIMKKFKITVKKAAYLAFCLSVFEYLLFLCHFMLTCDNAAVAGLTTSYKGVQHQLHVESKVLADCNTRCSCSTNTWDPVCGDNGVAYMSACLAGCKKFVGTGTNMVFQDCSCIQSLGNSSAVLGLCKKGPECANRLQYFLILTIIISFIYSLTAIPGYMVFLRCVKSEEKSLGVGLHTFCIRVFAGIPAPVYFGALIDRTCLHWGTLKCGQRGACRMYDINSFRHIYLGLPIALRGSSYLPAFFILILMRKFQFPGDIDSSATDHTEMMLGEKESEHTDVHGSPQVENDGELKTKL,Km,[8],137 µM
same,Km,[9],48 µM
Solute carrier organic anion transporter family member 1A4 (Rattus norvegicus) (protein) MGKSEKRVATHGVRCFAKIKMFLLALTCAYVSKSLSGTYMNSMLTQIERQFGIPTSIVGLINGSFEIGNLLLIIFVSYFGTKLHRPIMIGVGCAVMGLGCFLISLPHFLMGQYEYETILPTSNVSSNSFFCVENRSQTLNPTQDPSECVKEMKSLMWIYVLVGNIIRGIGETPIMPLGISYIEDFAKSENSPLYIGILETGMTIGPLIGLLLASSCANIYVDIESVNTDDLTITPTDTRWVGAWWIGFLVCAGVNILTSFPFFFFPKTLPKEGLQENVDGTENAKEKKHRKKAKEEKRGITKDFFVFMKSLSCNPIYMLFILISVLQFNAFINSFTFMPKYLEQQYGKSTAEVVFLMGLYMLPPICLGYLIGGLIMKKFKVTVKKAAHLAFWLCLSEYLLSFLSYVMTCDNFPVAGLTTSYEGVQHQLYVENKVLADCNTRCNCSTNTWDPVCGDNGLAYMSACLAGCEKSVGTGTNMVFQNCSCIQSSGNSSAVLGLCNKGPDCANKLQYFLIIAIFGCFIYSLAGIPGYMVLLRCIKSEEKSLGVGLHAFCIRILAGIPAPIYFGALIDRTCLHWGTLKCGEPGACRMYDINSFRRLYLGLPAALRGASFVPAFFILRLTRTFQFPGDIESSKTDHAEMKLTLKESECTEVLRSKVTED,Km,[9],19 µM
